Measured values as given in US20110313044A1, “Polymorphs of Suberoylanilide Hydroxamic Acid” (URQUIMA S.A., priority 2010, published 2011).
In brackets after ≈: the same amount, converted by molar mass. Blank lines part the entries; values can stand above or below the compound they belong to.

Assays:
physchem = conditions: thermodynamic from solid
[1] = Physical stability of crystalline forms at room temperature (PXRD, DSC characterisation)
Text: The crystalline products obtained have been characterised by XPRD (FIG. 1 and Table 1) and DSC (FIG. 2).

Hygroscopicity test = assay type: physicochemical
[2] = Solubility test Form α vs Form I; conditions: for solubility: thermodynamic from solid

solubility (physchem; aqueous buffer): 0.1 mg/mL (≈ 0.378 mM)
solubility (physchem; organic solvent or mixture): 21.8 mg/mL (≈ 82.5 mM)
SMILES: O=C(CCCCCCC(=O)Nc1ccccc1)NO [Form I, suberoylanilide hydroxamic acid]

Polymorph stability [1]: unstable at room temperature
SMILES: O=C(CCCCCCC(=O)Nc1ccccc1)NO [Form II, suberoylanilide hydroxamic acid]

Polymorph stability [1]: stable at room temperature
SMILES: O=C(CCCCCCC(=O)Nc1ccccc1)NO [Form III, suberoylanilide hydroxamic acid]

Hygroscopicity (Hygroscopicity test): non-hygroscopic
solubility ([2]; HCl 2M, aqueous buffer): 0.19 mg/mL (≈ 0.719 mM)
Solubility versus Form I ([2]; methanol and HCl 2M, in words): higher solubility
solubility ([2]; methanol, organic solvent or mixture): 30 mg/mL (≈ 113 mM)
Polymorph stability [1]: stable at room temperature
SMILES: O=C(CCCCCCC(=O)Nc1ccccc1)NO [Form α, suberoylanilide hydroxamic acid]
